Source: PubChem BioAssay AID256 (DTP/NCI, 2004)
Values joined by “and” are separate entries in the source; they are usually repeats but may differ in a detail not shown here. Identical values can stand only once. Inconclusive results and toxic doses are left out.

Test system: CD2F1 mice, L1210 leukemia ip, survival T/C
Experiment: NCI In Vivo Anticancer Drug Screen. Data for tumor model L1210 Leukemia (intraperitoneal) in CD2F1 (CDF1) mice
Conditions: higher = longer survival
Procedure, shortened: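 Activity against a transplanted murine tumor was judged by comparing the compound group with a vehicle group. The outcome in the treated animals was divided by that in the controls.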

[1] = endpoint: mean survival time, dose: 50.0 mg/kg/injection, schedule: Q01DX009 (ip), vehicle: saline with Tween-80
[2] = endpoint: mean survival time, dose: 100.0 mg/kg/injection, schedule: Q01DX001 (ip), vehicle: saline with Tween-80
[3] = endpoint: mean survival time, dose: 200.0 mg/kg/injection, schedule: Q01DX001 (ip), vehicle: saline with Tween-80
[4] = endpoint: mean survival time, dose: 400.0 mg/kg/injection, schedule: Q01DX001 (ip), vehicle: saline with Tween-80
[5] = endpoint: mean survival time, dose: 100.0 mg/kg/injection, schedule: Q04DX003 (ip), vehicle: saline with Tween-80
[6] = endpoint: mean survival time, dose: 200.0 mg/kg/injection, schedule: Q04DX003 (ip), vehicle: saline with Tween-80
[7] = endpoint: mean survival time, dose: 400.0 mg/kg/injection, schedule: Q04DX003 (ip), vehicle: saline with Tween-80
[8] = endpoint: mean survival time, dose: 100.0 mg/kg/injection, schedule: Q01DX009 (ip), vehicle: saline with Tween-80
[9] = endpoint: mean survival time, dose: 200.0 mg/kg/injection, schedule: Q01DX009 (ip), vehicle: saline with Tween-80
[10] = endpoint: mean survival time, dose: 400.0 mg/kg/injection, schedule: Q01DX009 (ip), vehicle: saline with Tween-80

## CC(=O)OCC1OC(N2C(=O)C=CC2=O)C(OC(C)=O)C1OC(C)=O (centres undefined)
endpoint: mean survival time, dose: 1.56 mg/kg/injection, schedule: Q01DX005 (ip), vehicle: water
  T/C: 110 % of control
endpoint: mean survival time, dose: 3.13 mg/kg/injection, schedule: Q01DX005 (ip), vehicle: water
  T/C: 96 % of control
endpoint: mean survival time, dose: 6.25 mg/kg/injection, schedule: Q01DX005 (ip), vehicle: water
  T/C: 104 % of control
endpoint: mean survival time, dose: 12.5 mg/kg/injection, schedule: Q01DX005 (ip), vehicle: water
  T/C: 95 % of control and 102 % of control
endpoint: mean survival time, dose: 25.0 mg/kg/injection, schedule: Q01DX005 (ip), vehicle: water
  T/C: 106 % of control

## CS(=O)(=O)OCCN(CCOS(C)(=O)=O)c1cccc([N+](=O)[O-])c1
endpoint: mean survival time, dose: 8.0 mg/kg/injection, schedule: Q01DX001 (ip), vehicle: saline
  T/C: 96 % of control
endpoint: mean survival time, dose: 10.0 mg/kg/injection, schedule: Q01DX010 (ip), vehicle: saline
  T/C: 113 % of control
endpoint: mean survival time, dose: 16.0 mg/kg/injection, schedule: Q01DX001 (ip), vehicle: saline
  T/C: 103 % of control
endpoint: mean survival time, dose: 32.0 mg/kg/injection, schedule: Q01DX001 (ip), vehicle: saline
  T/C: 110 % of control
endpoint: mean survival time, dose: 64.0 mg/kg/injection, schedule: Q01DX001 (ip), vehicle: saline
  T/C: 114 % of control and 108 % of control
endpoint: mean survival time, dose: 128.0 mg/kg/injection, schedule: Q01DX001 (ip), vehicle: saline
  T/C: 118 % of control
endpoint: mean survival time, dose: 256.0 mg/kg/injection, schedule: Q01DX001 (ip), vehicle: saline
  T/C: 119 % of control
endpoint: mean survival time, dose: 300.0 mg/kg/injection, schedule: Q01DX010 (ip), vehicle: saline
  T/C: 97 % of control

## FC(F)(F)C1(C(F)(F)F)C/C(=N/Nc2ccccc2)CO1
endpoint: mean survival time, dose: 100.0 mg/kg/injection, schedule: Q04DX003 (ip), vehicle: other
  T/C: 101 % of control
endpoint: mean survival time, dose: 200.0 mg/kg/injection, schedule: Q04DX003 (ip), vehicle: other
  T/C: 101 % of control
endpoint: mean survival time, dose: 400.0 mg/kg/injection, schedule: Q04DX003 (ip), vehicle: other
  T/C: 101 % of control

## CCCCCCCCOC(=O)C12Oc3ccc(-c4ccc5c(c4O)C(O)=C4C(=O)CC(C)C(O)C4(C(=O)OCCCCCCCC)O5)c(O)c3C(O)=C1C(=O)CC(C)C2O (centres undefined)
endpoint: mean survival time, dose: 2.5 mg/kg/injection, schedule: Q01DX009 (ip), vehicle: saline with Tween-80
  T/C: 97 % of control
endpoint: mean survival time, dose: 5.0 mg/kg/injection, schedule: Q01DX009 (ip), vehicle: saline with Tween-80
  T/C: 97 % of control
endpoint: mean survival time, dose: 10.0 mg/kg/injection, schedule: Q01DX009 (ip), vehicle: saline with Tween-80
  T/C: 97 % of control

## O=C(O)c1ccc(N/N=C/C(F)(F)F)cc1
endpoint: mean survival time, dose: 1.87 mg/kg/injection, schedule: Q01DX009 (ip), vehicle: saline
  T/C: 107 % of control
endpoint: mean survival time, dose: 3.75 mg/kg/injection, schedule: Q01DX009 (ip), vehicle: saline
  T/C: 105 % of control
endpoint: mean survival time, dose: 6.25 mg/kg/injection, schedule: Q01DX001 (ip), vehicle: saline with Tween-80
  T/C: 97 % of control
endpoint: mean survival time, dose: 7.5 mg/kg/injection, schedule: Q01DX009 (ip), vehicle: saline
  T/C: 105 % of control
endpoint: mean survival time, dose: 12.5 mg/kg/injection, schedule: Q01DX001 (ip), vehicle: saline with Tween-80
  T/C: 94 % of control
endpoint: mean survival time, dose: 12.5 mg/kg/injection, schedule: Q01DX009 (ip), vehicle: saline with Tween-80
  T/C: 107 % of control
endpoint: mean survival time, dose: 15.0 mg/kg/injection, schedule: Q01DX009 (ip), vehicle: saline
  T/C: 109 % of control
endpoint: mean survival time, dose: 25.0 mg/kg/injection, schedule: Q01DX001 (ip), vehicle: saline with Tween-80
  T/C: 94 % of control
endpoint: mean survival time, dose: 25.0 mg/kg/injection, schedule: Q01DX009 (ip), vehicle: saline with Tween-80
  T/C: 109 % of control
endpoint: mean survival time, dose: 50.0 mg/kg/injection, schedule: Q01DX001 (ip), vehicle: saline with Tween-80
  T/C: 101 % of control
[1]
  T/C: 101 % of control
[2]
  T/C: 95 % of control
[3]
  T/C: 89 % of control
[4]
  T/C: 118 % of control

## CCCC(C)(C)O
[5]
  T/C: 104 % of control
[6]
  T/C: 107 % of control
[7]
  T/C: 101 % of control

## O=C(NCCC1CCC2OC2C1)c1ccccc1 (centres undefined)
[8]
  T/C: 96 % of control
[5]
  T/C: 107 % of control
[9]
  T/C: 98 % of control
[6]
  T/C: 100 % of control
[10]
  T/C: 96 % of control
[7]
  T/C: 94 % of control

## OCC1OC(c2[nH]nc3c(NO)ncnc23)C(O)C1O (centres undefined)
endpoint: mean survival time, dose: 75.0 mg/kg/injection, schedule: Q01DX001 (ip), vehicle: saline
  T/C: 107 % of control
endpoint: mean survival time, dose: 150.0 mg/kg/injection, schedule: Q01DX001 (ip), vehicle: saline
  T/C: 107 % of control

## CCOC(=O)C1CC1C#N (centres undefined)
[5]
  T/C: 102 % of control
[6]
  T/C: 98 % of control
[7]
  T/C: 97 % of control

## ClCCCN1CCN(CCCl)CC1
endpoint: median survival time, dose: 2.5 mg/kg/injection, schedule: Q01DX009 (ip), vehicle: saline
  T/C: 113 % of control and 115 % of control
endpoint: median survival time, dose: 10.0 mg/kg/injection, schedule: Q01DX009 (ip), vehicle: saline
  T/C: 155 % of control and 177 % of control and 209 % of control
endpoint: median survival time, dose: 20.0 mg/kg/injection, schedule: Q01DX009 (ip), vehicle: saline
  T/C: 109 % of control
endpoint: median survival time, dose: 40.0 mg/kg/injection, schedule: Q01DX009 (ip), vehicle: saline
  T/C: 88 % of control and 90 % of control

## C=CC(=O)Nc1ccccc1
endpoint: mean survival time, dose: 50.0 mg/kg/injection, schedule: Q04DX002 (ip), vehicle: Klucel (hydroxypropylcellulose) (HPC)
  T/C: 94 % of control
endpoint: mean survival time, dose: 100.0 mg/kg/injection, schedule: Q04DX002 (ip), vehicle: Klucel (hydroxypropylcellulose) (HPC)
  T/C: 94 % of control
[5]
  T/C: 96 % of control
endpoint: mean survival time, dose: 200.0 mg/kg/injection, schedule: Q04DX002 (ip), vehicle: Klucel (hydroxypropylcellulose) (HPC)
  T/C: 97 % of control
[6]
  T/C: 96 % of control
[7]
  T/C: 97 % of control

## Cc1ccc(-n2c(=S)[nH]c3ccccc3c2=O)cc1
[5]
  T/C: 100 % of control

## COC(=O)c1c(CC#N)ncn1C1CC(OC(=O)c2ccc(C)cc2)C(COC(=O)c2ccc(C)cc2)O1 (centres undefined)
endpoint: median survival time, dose: 9.88 mg/kg/injection, schedule: Q01DX005 (ip), vehicle: water
  T/C: 101 % of control
endpoint: median survival time, dose: 19.75 mg/kg/injection, schedule: Q01DX005 (ip), vehicle: water
  T/C: 96 % of control
endpoint: median survival time, dose: 39.5 mg/kg/injection, schedule: Q01DX005 (ip), vehicle: water
  T/C: 96 % of control
endpoint: median survival time, dose: 79.0 mg/kg/injection, schedule: Q01DX005 (ip), vehicle: water
  T/C: 97 % of control
endpoint: median survival time, dose: 158.0 mg/kg/injection, schedule: Q01DX005 (ip), vehicle: water
  T/C: 100 % of control

## N=C(OC1CCCCC1)C(Cl)(Cl)Cl
[1]
  T/C: 92 % of control
[8]
  T/C: 88 % of control

## CC(/C=N/N=C(N)N)=N\N=C(N)N
endpoint: mean survival time, dose: 12.5 mg/kg/injection, schedule: Q04DX003 (ip), vehicle: Klucel (hydroxypropylcellulose) (HPC)
  T/C: 97 % of control
endpoint: mean survival time, dose: 25.0 mg/kg/injection, schedule: Q04DX003 (ip), vehicle: Klucel (hydroxypropylcellulose) (HPC)
  T/C: 98 % of control
endpoint: mean survival time, dose: 50.0 mg/kg/injection, schedule: Q04DX003 (ip), vehicle: Klucel (hydroxypropylcellulose) (HPC)
  T/C: 110 % of control
endpoint: mean survival time, dose: 53.6 mg/kg/injection, schedule: Q03HX024 (ip), vehicle: clinical formulation
  T/C: 92 % of control
endpoint: median survival time, dose: 120.0 mg/kg/injection, schedule: Q01DX009 (ip), vehicle: saline
  T/C: 87 % of control

## COc1cc(NC(=O)Nc2ccccc2OC)c(OC)cc1Cl
endpoint: mean survival time, dose: 100.0 mg/kg/injection, schedule: Q04DX002 (ip), vehicle: saline with Tween-80
  T/C: 90 % of control
endpoint: mean survival time, dose: 200.0 mg/kg/injection, schedule: Q04DX002 (ip), vehicle: saline with Tween-80
  T/C: 93 % of control
endpoint: mean survival time, dose: 400.0 mg/kg/injection, schedule: Q04DX002 (ip), vehicle: saline with Tween-80
  T/C: 107 % of control

## c1csc(CCc2nc3ccccc3o2)c1
[2]
  T/C: 103 % of control
[8]
  T/C: 93 % of control
[3]
  T/C: 98 % of control
[9]
  T/C: 97 % of control
[4]
  T/C: 112 % of control
[10]
  T/C: 93 % of control

## C[N+]12CCC34c5ccccc5NC3C3C(CC(=O)[O-])OCC=C(C1)C3CC42 (centres undefined)
endpoint: mean survival time, dose: 75.0 mg/kg/injection, schedule: Q01DX001 (ip), vehicle: other
  T/C: 96 % of control
endpoint: mean survival time, dose: 150.0 mg/kg/injection, schedule: Q01DX001 (ip), vehicle: other
  T/C: 98 % of control

## Cc1ccc(/C(C#N)=C2C=C(Br)/C(=N\O)C=C/2Cl)cc1
endpoint: mean survival time, dose: 25.0 mg/kg/injection, schedule: Q01DX009 (ip), vehicle: acetone
  T/C: 96 % of control
endpoint: mean survival time, dose: 50.0 mg/kg/injection, schedule: Q01DX009 (ip), vehicle: acetone
  T/C: 98 % of control
endpoint: mean survival time, dose: 100.0 mg/kg/injection, schedule: Q01DX009 (ip), vehicle: acetone
  T/C: 98 % of control
